Experimental data reported in patent publication US12527812B2, “Esophageal stricture suppressing agent” (priority 2019, dated 2026).

Tests used:
[1] = system: esophageal stricture after entire circumference (100%) ESD; experiment: esophageal entire circumference (100%) ESD model, degree of esophageal stricture by macroscopical findings and histopathological analysis (Masson staining); assay type: in vivo
From the text: For the production of an esophageal entire circumference (100%) ESD model, miniature pigs for experiments were used.
As miniature pigs, three groups of a physiological saline administered group, a steroid preparation (Kenacort) administered group, and a CHST15 siRNA (manufactured by Hokkaido System Science Co., Ltd., lot number: 40481638) administered group were used (n=1/group). The miniature pig in each group was orally inserted with an upper gastrointestinal endoscope under general anesthesia and respiratory control, and an entire circumference (100%) ESD was performed using a dual knife with a total length of […] between 15 cm and 25 cm from the portal dentition. Into an entire circumference artificial ulcer immediately after preforming ESD was injected 2 mL in total of an administration solution (physiological saline, steroid preparation, CHST15 siRNA, 250 nM solution) using an endoscopic injection needle at a total of 20 locations so as to evenly cover the entire circumference from the ulcer bottom.
If no treatment is performed after ESD, esophageal stricture will develop within 2 weeks and food will not pass through, and the miniature pig will die within 4 weeks thereafter, so that the observation period after a single time administration was set to 2 weeks, the entire group was slaughtered after 2 weeks (Day 14), and the degree of esophageal stricture was investigated by macroscopical findings, and histopathological analysis (Masson staining).

[2] = system: stricture esophageal tissue after ESD; conditions: half circumferential (50%) ESD; Document 14; cited from earlier work
[3] = single local injection immediately after ESD, Day 14, n=1/group

CHST15 siRNA: siRNA having a structure in which the RNAs described in SEQ ID NOs:1 and 2 are hybridized; suppresses expression of the CHST15 gene (chain 1 GGAGCAGAGCAAGAUGAAUACAAUCAG; chain 2 GAUUGUAUUCAUCUUGCUCUGCUCCAU; chemistry not given here)
suppressing effect of esophageal stricture after entire circumference ESD (overall) ([1]; consideration / summary of Example 1): remarkable stricture suppressing effect
damage of the muscular layer (pathological findings, Masson staining) ([1]; pig, in vivo): no damage of the muscular layer was observed
artificial ulcer repair / regenerated epithelium (pathological findings, Masson staining) [1, 3]: almost covered with regenerated epithelium
edible state (macroscopical findings) [1, 3]: edible
esophageal stricture / obstruction (macroscopical findings) [1, 3]: no stricture or obstruction
fibrosis deeper than the ulcer floor (pathological findings, Masson staining) [1, 3]: no pathological fibrosis
shortening of esophageal length (macroscopical findings) ([1]; single local injection into artificial ulcer immediately after ESD, 2 mL in total at 20 locations (CHST15 siRNA 250 nM solution), Day 14, n=1/group): substantially not observed
fibrosis when expression of CHST15 mRNA is suppressed [2]: fibrosis is suppressed
